Test results reported in patent US20060234945A1, “Ophthalmic therapeutic composition” (Nihon Tenganyaku Kenkyusho Co., LTD., priority 2002, published 2006).

Key:
corneal epithelium = assay: Action on corneal epithelium migration (in vitro), corneal organ culture system; type: cell-based, Japanese white rabbit; settings: rabbit corneal blocks incubated 20 hours in Medium-199 with test compound; FIG. 1, 51.2-512.3 nM; vs control
Procedure: (1) Action on Corneal Epithelium Migration (In Vitro)
Using the cornea of male Japanese white rabbits, the effects on corneal epithelium migration were examined using the migrating length of the corneal epithelium in a corneal organ culture system as an index in accordance with the method of Nishida et al. (J. Cell. Biol., 97, pp. 1653-1657 (1983)).
Corneal blocks (three per group) were cut out from rabbit corneal tissue. These corneal blocks were incubated for 20 hours under the conditions of 37° C. and 5% CO2 in a culture medium (Medium-199) containing the test compound. After incubation, the corneal blocks were fixed in a mixed solution of ethanol and glacial acetic acid (volume ratio of 95:5), embedded in paraffin, and prepared as sections. After deparaffination, the sections were stained with hematoxylin-eosin and the migrating length of the epithelial cell layer was measured under a microscope.

[1] = tested on: rabbit corneal wound model; assay: Corneal wound healing promotion action 1 (in vivo), approx. 6 mm corneal epithelial abrasion; set-up: species or system Japanese white rabbit
Procedure: (2) Corneal Wound Healing Promotion Action 1 (In Vivo)
Using a male Japanese white rabbit, a wound of approximately 6 mm in diameter was produced in the cornea by inducing corneal epithelial abrasion in accordance with the method of Cintron et al. (Ophthalmic Res., 11, pp. 90-96 (1979)). The wound area was measured using the fluorescein-stained area as an index. The effects of the test compound on corneal wound healing were examined.
The eye drops containing the respective concentrations of the test compound were instilled (30 μl at a time) at 0, 3, 6, 9, 12, 18, 24, 27, 30, 33, 36, 42, and 48 hours after inducing corneal epithelial abrasion. In measuring the wound area, fluorescein staining was carried out and a photograph of the cornea was measured. The fluorescein-stained area of the photographed cornea was computed using an image analysis processing system.
(§1) In Tables 1 and 2, the respective values indicate the mean value±standard deviation (n=6). Statistical analysis was carried out using Dunnett's multiple comparison with respect to PBS with the area of the corneal wound portion immediately after (0 hours after) corneal epithelial abrasion being set to 100% (*p<0.05, ** p<0.01; vs. control).

[2] = tested on: rabbit corneal wound model; assay: Corneal wound healing promotion action 2 (in vivo), approx. 8 mm corneal epithelial abrasion; set-up: species or system Japanese white rabbit
Procedure: (3) Corneal Wound Healing Promotion Action 2 (In Vivo)
Using the same method as (2) above, corneal epithelial abrasion was induced in a Japanese white rabbit to produce a wound of approximately 8 mm in diameter in the cornea. The wound area was measured using the fluorescein-stained area as an index to examine the effects on corneal wound healing.
The eye drops containing the respective concentrations of the test compound were instilled (25 μl at a time) at 0, 6, 12, 18, 24, 30, 36, 42, 48, and 54 hours after induction corneal epithelial abrasion. In measuring the wound area, fluorescein staining was carried out and a photograph of the cornea was measured. The fluorescein-stained area of the photographed cornea was computed using an image analysis processing system.
as §1, with “Tables 3” for “Tables 1”, “and 4,” for “and 2,”, “to physiological saline” for “to PBS”

Ac-Pro-His-Ser-Arg-Asn-NH2 (Ac-PHSRN-NH2) [PHSRN (SEQ ID NO: 1)]
migration of corneal epithelium (migrating length of epithelial cell layer) (corneal epithelium): significant promotion | Healing ratio (%) ([1]; 2 μM eye drop, 0 hr (baseline)): 0% | Healing ratio (%) ([1]; 2 μM eye drop, 6 hr): 9.66 ± 2.21% | Healing ratio (%) ([1]; 2 μM eye drop, 12 hr): 26.71 ± 2.62% | Healing ratio (%) ([1]; 2 μM eye drop, 24 hr): 61.91 ± 3.08% | Healing ratio (%) ([1]; 2 μM eye drop, 36 hr): 88.08 ± 4.03% | Healing ratio (%) ([1]; 2 μM eye drop, 48 hr): 99.14 ± 1.90% | Healing ratio (%) ([1]; 20 μM eye drop, 0 hr (baseline)): 0% | Healing ratio (%) ([1]; 20 μM eye drop, 6 hr): 10.73 ± 3.21% | Healing ratio (%) ([1]; 20 μM eye drop, 12 hr): 28.01 ± 1.92% | Healing ratio (%) ([1]; 20 μM eye drop, 24 hr): 64.07 ± 3.98% | Healing ratio (%) ([1]; 20 μM eye drop, 36 hr): 89.09 ± 6.42% | Healing ratio (%) ([1]; 20 μM eye drop, 48 hr): 99.15 ± 1.52% | Healing ratio (%) ([1]; 200 μM eye drop, 0 hr (baseline)): 0% | Healing ratio (%) ([1]; 200 μM eye drop, 6 hr): 11.06 ± 3.50% | Healing ratio (%) ([1]; 200 μM eye drop, 12 hr): 28.69 ± 4.10% | Healing ratio (%) ([1]; 200 μM eye drop, 24 hr): 67.70 ± 5.37% | Healing ratio (%) ([1]; 200 μM eye drop, 36 hr): 94.97 ± 4.63% | Healing ratio (%) ([1]; 200 μM eye drop, 48 hr): 100.00 ± 0.00% | Healing ratio (%) ([1]; 2000 μM eye drop, 0 hr (baseline)): 0% | Healing ratio (%) ([1]; 2000 μM eye drop, 6 hr): 11.15 ± 1.25% | Healing ratio (%) ([1]; 2000 μM eye drop, 12 hr): 28.99 ± 2.65% | Healing ratio (%) ([1]; 2000 μM eye drop, 24 hr): 69.49 ± 3.17% | Healing ratio (%) ([1]; 2000 μM eye drop, 36 hr): 95.39 ± 3.06% | Healing ratio (%) ([1]; 2000 μM eye drop, 48 hr): 100.00 ± 0.00% | promotion of wound healing ([1]; instillation of eye drops, 6 mm wound, vs PBS): significant promotion of wound healing | Healing ratio (%) ([2]; 0.04% eye drop, 0 hr (baseline)): 0% | Healing ratio (%) ([2]; 0.04% eye drop, 12 hr): 13.57 ± 3.74% | Healing ratio (%) ([2]; 0.04% eye drop, 18 hr): 29.45 ± 3.29% | Healing ratio (%) ([2]; 0.04% eye drop, 24 hr): 58.71 ± 6.32% | Healing ratio (%) ([2]; 0.04% eye drop, 30 hr): 58.71 ± 6.32% | Healing ratio (%) ([2]; 0.04% eye drop, 36 hr): 70.29 ± 8.38% | Healing ratio (%) ([2]; 0.04% eye drop, 48 hr): 88.27 ± 8.74% | Healing ratio (%) ([2]; 0.04% eye drop, 54 hr): 94.24 ± 6.62% | Healing ratio (%) ([2]; 0.04% eye drop, 72 hr): 98.93 ± 2.16% | promotion of wound healing ([2]; instillation of eye drops, 8 mm wound, vs physiological saline): significant promotion of wound healing

hyaluronic acid [reference compound]
Healing ratio (%) ([2]; 0.3% eye drop, 0 hr (baseline)): 0% | Healing ratio (%) ([2]; 0.3% eye drop, 12 hr): 13.98 ± 4.88% | Healing ratio (%) ([2]; 0.3% eye drop, 18 hr): 28.45 ± 3.37% | Healing ratio (%) ([2]; 0.3% eye drop, 24 hr): 60.78 ± 8.07% | Healing ratio (%) ([2]; 0.3% eye drop, 30 hr): 60.78 ± 8.07% | Healing ratio (%) ([2]; 0.3% eye drop, 36 hr): 71.62 ± 11.02% | Healing ratio (%) ([2]; 0.3% eye drop, 48 hr): 90.19 ± 9.51% | Healing ratio (%) ([2]; 0.3% eye drop, 54 hr): 95.35 ± 6.44% | Healing ratio (%) ([2]; 0.3% eye drop, 72 hr): 99.92 ± 0.22%
